SMILES strings stand for the structures.

The text below walks through data of patent publication US9981968B2, “Substituted pyrrolo[2,3-d]pyrimidines for the treatment of cancer and proliferative disorders” (Northwestern University, priority 2013, dated 2018).

In assay [1] the test system is acute leukemia cell lines (THP-1, K562, Kasumi-1, and U937). Description: Inhibition of viability of acute leukemia cell lines. It is filed as cell-based, human. Particulars: THP-1, K562, Kasumi-1, U937. As to the method:
Compounds 381, 383, 409 (as test compounds) and Compound 501 (as a negative control) were administered to a variety of acute leukemia cell lines (THP-1. K562, Kasumi-1, and U937) in order to test their ability to inhibit cell growth as compared to 8-amino adenosine (8NH2-Ado) and 8-chloro adenosine (8Cl-Ado) (as positive controls) as in the previous Examples.

Assay [2] deals with U937 cell lines. Kind of assay: Immunoblot of PARP cleavage and cleaved caspase 3. The following applies: U937 cell lysates, FIG. 17. It is filed as cell-based, human. Here is the method:
FIG. 17. Immunoblot of cell lysates from U937 cell lines treated with Compounds 381, 383, 409 (as test compounds) and Compound 501 (as a negative control) as compared to 8-amino adenosine (8NH2-Ado) and 8-chloro adenosine (8Cl-Ado) (as positive controls). The impact of the compounds on proteins associated with cell death was assessed via performing an immunoblot. (See FIG. 17). PARP cleavage indicated activation of the caspase cascade and cell death by induction of apoptosis. Similarly detection of cleaved caspase 3 indicated activation of caspase activity and cell death by apoptosis. GAPDH was included as a loading control to indicate approximately equal loading of protein.

Consider `FC(F)(F)c1cn(CC2CCNCC2)c2ncnc(Cl)c12` [NUCC-0000381], for which the cell viability entry in assay [1] (FIGS. 11-14) was “reduce cell viability significantly”. The “inhibitory activity relative to positive controls” value in assay [1] (versus 8NH2-Ado and 8Cl-Ado) was “inhibitory activities approaching those of 8NH2-Ado and 8Cl-Ado”. Also, in assay [2], the “induction of apoptosis (PARP cleavage, cleaved caspase 3)” value is recorded as “Induction of apoptosis was observed”.
